From patent publication US12390440B2, “Immunomodulating trifluoromethyl-aminal azalides” (Zoetis Services LLC, priority 2020, dated 2025)

What was measured:
[1] = test system: TNF-α; test: Bovine whole blood assay, LPS-induced TNF-α; format: cell-based; conditions: Bos taurus, fresh whole bovine blood, LPS 1 μg/mL
Description: (§1) (protected from light) for 30 minutes.

[2] = test system: IL-1β; test: Bovine whole blood assay, IL-1β; format: cell-based; conditions: overstimulation of IL-1β, perceived cellular toxicity concentration;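 further: compound concentration at which rising IL-1β release signals cytotoxicity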
Description: as §1

[3] = test system: IL-6; test: Bovine whole blood assay, IL-6; format: cell-based; conditions: Bos taurus, fresh whole bovine blood, LPS 1 μg/mL
Description: as §1

[4] = test system: E. coli; test: MIC, E. coli; conditions: Escherichia coli
[5] = test system: S. aureus; test: MIC, S. aureus; conditions: Staphylococcus aureus
[6] = test system: M. haemolytica; test: MIC, M. haemolytica; conditions: Mannheimia haemolytica
[7] = test system: P. multocida; test: MIC, P. multocida; conditions: Pasteurella multocida
[8] = test system: BRD pathogens, M. haemolytica and P. multocida; test: MIC screening panel, BRD pathogens (CLSI broth micro-dilution); conditions: read-out: MIC flag (*) at Ex #

Row | SMILES | IC50 [1] | IC50 [3] | IL-1β OS of LPS [2] | MIC [8] | also measured
1 | CC[C@H]1OC(=O)[C@H](C)[C@@H](O[C@H]2C[C@@](C)(OC)[C@](O)(CNC(CO)CO)[C@H](C)O2)[C@H](C)[C@@H](O[C@@H]2O[C@H](C)C[C@H]3[C@H]2OC(C(F)(F)F)N3C)[C@](C)(O)C[C@@H](C)CN[C@H](C)[C@@H](O)[C@]1(C)O (stereo partly drawn) [Example A-4, (2R,3S,4R,5R,8R,10R,11R,12S,13S,14R)-13-(((2R,4R,5S,6S)-5-(((1,3-dihydroxypropan-2-yl)amino)methyl)-5-hydroxy-4-methoxy-4,6-dimethyltetrahydro-2H-pyran-2-yl)oxy)-11-(((3aR,4S,6R,7aS)-1,6-dimethyl-2-(trifluoromethyl)hexahydro-2H-pyrano[4,3-d]oxazol-4-yl)oxy)-2-ethyl-3,4,10-trihydroxy-3,5,8,10,12,14-hexamethyl-1-oxa-6-azacyclopentadecan-15-one] | 40 µM | 200 µM | 80 µM | – | –
2 | CC[C@H]1OC(=O)[C@H](C)[C@@H](O[C@H]2C[C@@](C)(OC)[C@](O)(CNC3CCC3)[C@H](C)O2)[C@H](C)[C@@H](O[C@@H]2O[C@H](C)C[C@H]3[C@H]2OC(C(F)(F)F)N3C)[C@](C)(O)C[C@@H](C)CN[C@H](C)[C@@H](O)[C@]1(C)O (stereo partly drawn) [Example A-7, (2R,3S,4R,5R,8R,10R,11R,12S,13S,14R)-13-(((2R,4R,5S,6S)-5-((cyclobutylamino)methyl)-5-hydroxy-4-methoxy-4,6-dimethyltetrahydro-2H-pyran-2-yl)oxy)-11-(((3aR,4S,6R,7aS)-1,6-dimethyl-2-(trifluoromethyl)hexahydro-2H-pyrano[4,3-d]oxazol-4-yl)oxy)-2-ethyl-3,4,10-trihydroxy-3,5,8,10,12,14-hexamethyl-1-oxa-6-azacyclopentadecan-15-one] | – | – | – | – | MIC ([4]; E. coli 25922): > 64 µg/mL; MIC ([4]; E. coli W3110): > 64 µg/mL; MIC [5]: > 64 µg/mL; MIC ([6]; M. haemolytica 12726): > 64 µg/mL; MIC ([6]; M. haemolytica 33396): > 64 µg/mL; MIC ([6]; M. haemolytica 46571, bovine efficacy challenge strain): > 64 µg/mL; MIC ([7]; P. multocida 43137): > 64 µg/mL; MIC ([7]; P. multocida 46572, murine efficacy challenge strain): > 64 µg/mL
3 | CC[C@H]1OC(=O)[C@H](C)[C@@H](O[C@H]2C[C@@](C)(OC)[C@](O)(CNCCN3CCCCC3=O)[C@H](C)O2)[C@H](C)[C@@H](O[C@@H]2O[C@H](C)C[C@H]3[C@H]2OC(C(F)(F)F)N3C)[C@](C)(O)C[C@@H](C)CN[C@H](C)[C@@H](O)[C@]1(C)O (stereo partly drawn) [Example A-15, (2R,3S,4R,5R,8R,10R,11R,12S,13S,14R)-11-(((3aR,4S,6R,7aS)-1,6-dimethyl-2-(trifluoromethyl)hexahydro-2H-pyrano[4,3-d]oxazol-4-yl)oxy)-2-ethyl-3,4,10-trihydroxy-13-(((2R,4R,5S,6S)-5-hydroxy-4-methoxy-4,6-dimethyl-5-(((2-(2-oxopiperidin-1-yl)ethyl)amino)methyl)tetrahydro-2H-pyran-2-yl)oxy)-3,5,8,10,12,14-hexamethyl-1-oxa-6-azacyclopentadecan-15-one] | 23 µM | – | 40 µM | < 64 µg/mL | –
4 | CC[C@H]1OC(=O)[C@H](C)[C@@H](O[C@H]2C[C@@](C)(OC)[C@](O)(CNCC3CCC(=O)N3)[C@H](C)O2)[C@H](C)[C@@H](O[C@@H]2O[C@H](C)C[C@H]3[C@H]2OC(C(F)(F)F)N3C)[C@](C)(O)C[C@@H](C)CN[C@H](C)[C@@H](O)[C@]1(C)O (stereo partly drawn) [Example A-21, (2R,3S,4R,5R,8R,10R,11R,12S,13S,14R)-11-(((3aR,4S,6R,7aS)-1,6-dimethyl-2-(trifluoromethyl)hexahydro-2H-pyrano[4,3-d]oxazol-4-yl)oxy)-2-ethyl-3,4,10-trihydroxy-13-(((2R,4R,5S,6S)-5-hydroxy-4-methoxy-4,6-dimethyl-5-((((5-oxopyrrolidin-2-yl)methyl)amino)methyl)tetrahydro-2H-pyran-2-yl)oxy)-3,5,8,10,12,14-hexamethyl-1-oxa-6-azacyclopentadecan-15-one] | 80 µM | 78 µM | 32 µM | – | –
5 | CC[C@H]1OC(=O)[C@H](C)[C@@H](O[C@H]2C[C@@](C)(OC)[C@](O)(CNCCNC(C)=O)[C@H](C)O2)[C@H](C)[C@@H](O[C@@H]2O[C@H](C)C[C@H]3[C@H]2OC(C(F)(F)F)N3C)[C@](C)(O)C[C@@H](C)CN[C@H](C)[C@@H](O)[C@]1(C)O (stereo partly drawn) [Example A-22, N-(2-((((2S,3S,4R,6R)-6-(((2R,3S,4R,5R,8R,10R,11R,12S,13S,14R)-11-(((3aR,4S,6R,7aS)-1,6-dimethyl-2-(trifluoromethyl)hexahydro-2H-pyrano[4,3-d]oxazol-4-yl)oxy)-2-ethyl-3,4,10-trihydroxy-3,5,8,10,12,14-hexamethyl-15-oxo-1-oxa-6-azacyclopentadecan-13-yl)oxy)-3-hydroxy-4-methoxy-2,4-dimethyltetrahydro-2H-pyran-3-yl)methyl)amino)ethyl)acetamide] | 62 µM | – | 40 µM | < 64 µg/mL | –
6 | CC[C@H]1OC(=O)[C@H](C)[C@@H](O[C@H]2C[C@@](C)(OC)[C@](O)(CNCCN3CCOC3=O)[C@H](C)O2)[C@H](C)[C@@H](O[C@@H]2O[C@H](C)C[C@H]3[C@H]2OC(C(F)(F)F)N3C)[C@](C)(O)C[C@@H](C)CN[C@H](C)[C@@H](O)[C@]1(C)O (stereo partly drawn) [Example A-24, (2R,3S,4R,5R,8R,10R,11R,12S,13S,14R)-11-(((3aR,4S,6R,7aS)-1,6-dimethyl-2-(trifluoromethyl)hexahydro-2H-pyrano[4,3-d]oxazol-4-yl)oxy)-2-ethyl-3,4,10-trihydroxy-13-(((2R,4R,5S,6S)-5-hydroxy-4-methoxy-4,6-dimethyl-5-(((2-(2-oxooxazolidin-3-yl)ethyl)amino)methyl)tetrahydro-2H-pyran-2-yl)oxy)-3,5,8,10,12,14-hexamethyl-1-oxa-6-azacyclopentadecan-15-one] | 70 µM | 29 µM | 40 µM | – | –

Further compounds by falling IC50 [1], results first:

Row | IC50 [1] | IC50 [3] | SMILES | IL-1β OS of LPS [2] | MIC [8] | also measured
7 | 134 µM | – | CC[C@H]1OC(=O)[C@H](C)[C@@H](O[C@H]2C[C@@](C)(OC)[C@](O)(CNCCCNS(C)(=O)=O)[C@H](C)O2)[C@H](C)[C@@H](O[C@@H]2O[C@H](C)C[C@H]3[C@H]2OC(C(F)(F)F)N3C)[C@](C)(O)C[C@@H](C)CN[C@H](C)[C@@H](O)[C@]1(C)O (stereo partly drawn) [Example A-23, N-(3-((((2S,3S,4R,6R)-6-(((2R,3S,4R,5R,8R,10R,11R,12S,13S,14R)-11-(((3aR,4S,6R,7aS)-1,6-dimethyl-2-(trifluoromethyl)hexahydro-2H-pyrano[4,3-d]oxazol-4-yl)oxy)-2-ethyl-3,4,10-trihydroxy-3,5,8,10,12,14-hexamethyl-15-oxo-1-oxa-6-azacyclopentadecan-13-yl)oxy)-3-hydroxy-4-methoxy-2,4-dimethyltetrahydro-2H-pyran-3-yl)methyl)amino)propyl)methanesulfonamide] | 40 µM | < 64 µg/mL | –
8 | 28 µM | 70 µM | CC[C@H]1OC(=O)[C@H](C)[C@@H](O[C@H]2C[C@@](C)(OC)[C@](O)(CNCCS(C)(=O)=O)[C@H](C)O2)[C@H](C)[C@@H](O[C@@H]2O[C@H](C)C[C@H]3[C@H]2OC(C(F)(F)F)N3C)[C@](C)(O)C[C@@H](C)CN[C@H](C)[C@@H](O)[C@]1(C)O (stereo partly drawn) [Example A-9, (2R,3S,4R,5R,8R,10R,11R,12S,13S,14R)-11-(((3aR,4S,6R,7aS)-1,6-dimethyl-2-(trifluoromethyl)hexahydro-2H-pyrano[4,3-d]oxazol-4-yl)oxy)-2-ethyl-3,4,10-trihydroxy-13-(((2R,4R,5S,6S)-5-hydroxy-4-methoxy-4,6-dimethyl-5-(((2-(methylsulfonyl)ethyl)amino)methyl)tetrahydro-2H-pyran-2-yl)oxy)-3,5,8,10,12,14-hexamethyl-1-oxa-6-azacyclopentadecan-15-one] | 40 µM | – | –
9 | 8 µM | 12 µM | CCCNC[C@]1(O)[C@H](C)O[C@@H](O[C@H]2[C@H](C)[C@@H](O[C@@H]3O[C@H](C)C[C@H]4[C@H]3OC(C(F)(F)F)N4Cc3ccccc3)[C@](C)(O)C[C@@H](C)CN[C@H](C)[C@@H](O)[C@](C)(O)[C@@H](CC)OC(=O)[C@@H]2C)C[C@@]1(C)OC (stereo partly drawn) [Example A-28, (2R,3S,4R,5R,8R,10R,11R,12S,13S,14R)-11-(((3aR,4S,6R,7aS)-1-benzyl-6-methyl-2-(trifluoromethyl)hexahydro-2H-pyrano[4,3-d]oxazol-4-yl)oxy)-2-ethyl-3,4,10-trihydroxy-13-(((2R,4R,5S,6S)-5-hydroxy-4-methoxy-4,6-dimethyl-5-((propylamino)methyl)tetrahydro-2H-pyran-2-yl)oxy)-3,5,8,10,12,14-hexamethyl-1-oxa-6-azacyclopentadecan-15-one] | >250 µM | < 64 µg/mL | –
10 | 3 µM | 1 µM | CCCNC[C@]1(O)[C@H](C)O[C@@H](O[C@H]2[C@H](C)[C@@H](O[C@@H]3O[C@H](C)C[C@H]4[C@H]3OC(C(F)(F)F)N4CC(C)C)[C@](C)(O)C[C@@H](C)CN[C@H](C)[C@@H](O)[C@](C)(O)[C@@H](CC)OC(=O)[C@@H]2C)C[C@@]1(C)OC (stereo partly drawn) [Example A-27, (2R,3S,4R,5R,8R,10R,11R,12S,13S,14R)-2-ethyl-3,4,10-trihydroxy-13-(((2R,4R,5S,6S)-5-hydroxy-4-methoxy-4,6-dimethyl-5-((propylamino)methyl)tetrahydro-2H-pyran-2-yl)oxy)-11-(((3aR,4S,6R,7aS)-1-isobutyl-6-methyl-2-(trifluoromethyl)hexahydro-2H-pyrano[4,3-d]oxazol-4-yl)oxy)-3,5,8,10,12,14-hexamethyl-1-oxa-6-azacyclopentadecan-15-one] | 2 µM | < 64 µg/mL | –
